According to patent publication US20230320999A1, “NON-THERAPEUTIC METHODS FOR ALLEVIATING OR REDUCING STRESS SYMPTOMS OF RUMINANTS” (DSM IP Assets B.V., priority 2018, published 2023):

Tested on: rumen metabolites (Dimethylsulfone)
Assay: Rumen metabolites in rumen fluid of fistulated steers, quantified by NMR after 21 days of treatment
Type: in vivo, Brahman steers (Bos indicus)
Settings: for Dimethylsulfone in rumen fluid: rumen fluid 3 h post feeding, days 20 and 21, 4 steers; for Change of the methyl donor (dimethylsulfone) in rumen fluid versus control period, in words: 21 days of treatment, Brahman steers
Description: Eight fistulated Brahman steers (Bos indicus) were randomly allocated to two groups (4 animals per group) and received a forage ad libitum diet (Rhode grass hay (Chloris […]), chemical composition: DM, 917 g/kg fresh matter; in g/kg of DM: OM, 806; CP, 169; NDF, 661; ADF, 359; ADL, 46; ash, 116 and GE 17.38 MJ/kg). […] Animals were adapted to the diet over a 21 d period. After that initial period, experimental animals were placed into individual pens in an animal house for the measurement of intakes (10 d) and were treated with cyclodextrin (2 g/100 kg LW) and molasses (60 mL/d). On the last 2 days animals were placed into open-circuit respiration chambers for collection of rumen samples. […] On days 20 and 21 of treatment both groups were placed in open-circuit respiration chambers for rumen fluid collection. Rumen fluid samples (approx. 60 mL per animal) were collected using a probe with 2 layers of cheesecloth through the cannula of the animal at 3 h post feeding, during confinement in respiration chambers to determine rumen metabolites.

Structure (SMILES) | Dimethylsulfone in rumen fluid (2.5 g propanediol mononitrate/animal/day for 21 days, control period value 20) | Change of the methyl donor (dimethylsulfone) in rumen fluid versus control period, in words | Dimethylsulfone in rumen fluid (1.6 g chloroform-CD/100 kg LW for 21 days, control period value 21)
O=[N+]([O-])OCCCO [PDMN, 1,3-propanediol mononitrate] | 113 μmol/L rumen fluid | statistically significant increase | 
ClC(Cl)Cl [Chloroform, chloroform] |  | statistically significant increase | 80 μmol/L rumen fluid
